# Test results taken from patent publication US20130273557A1 (priority 2010, published 2013).
# Entries after “also recorded” stand apart in the source; their conditions may differ.
# Columns and labels:
# [1] = target: human F1FO ATP synthase OSCP subunit (Homo sapiens, UniProt P48047); settings: co-incubation in 'cold' dexpramipexole (100 μM)
# Description: The human ORF constructs for alpha, beta, b, c, delta, d, epsilon, gamma and OSCP ATP synthase subunits, tagged with Myc and DDK (Flag) tags were from Origene Technologies (Rockville, Md.). 293T cells were transfected with the above constructs, using the calcium phosphate method (Li et al. 2008). On day-3 post transfection, the cells were lysed and the fusion proteins were bound to the EZview™ Red ANTI-FLAG® M2 Affinity Gel (Sigma, USA), according to the manufacturer's protocol. The proteins were eluted from a portion of the samples and presence of the proteins on the beads was verified by immunoblot analysis, using the mouse anti-Myc antibodyies (Cell signaling Technology). […] They were spun at 3000×g in 0.45 um Spin-X centrifugal devices (Corning Life Sciences, USA) for 10 min. The samples were washed three times with PBS and the filter units were incubated in Ultima Gold scintillation liquid (Perkin Elmer Health Sciences, Inc.) overnight. Samples were counted for ^14C, using a Beckman Coulter LS 5000TD scintillation counter.
# [2] = tested on: G93A-SOD1 mutant mouse model of ALS; settings: independent laboratory; cited from earlier work
# C2C12 cells [3] = type: cell-based, mouse; settings: dexpramipexole 30 μM or PSI 30 nM, 18 hr, relative to control
# Protocol: (§1) Data are presented as a percentage of the vehicle-treated control ±SEM (n=10 wells at each concentration). […] Experiments commenced 18 hr. after addition of drug. […] Data are presented as a percentage of the vehicle-treated control±SEM (n=14-17 wells for each group).
# (§2) The C2C12 mouse myoblast cell line (ATCC, Manasses, Va.) was cultured in Dulbecco's Modified Eagle Medium (DMEM; Gibco®; Carlsbad, Calif.) supplemented with 10% fetal bovine serum (FBS), 2 mM GlutaMax® and penicillin/streptomycin. Cells were maintained in 10% CO2 humidified at 37° C.
# (§3) Cellular viability was measured using CellTiter-Blue® (Promega Corp., Madison, Wis.) in black-walled optical imaging multiwell plates, and cellular ATP was measured using the CellTiter-Glo® (Promega Corp., Madison, Wis.) luminescence assay in opaque-walled multiwell plates according to the manufacturer's protocol.
# subjects with ALS = settings: double-blind, placebo- and low-dose-controlled 2-part Phase 2; cited from earlier work
# C2C12 myoblasts = assay: OCR and ECAR in C2C12 myoblasts (Seahorse); type: cell-based, mouse
# Protocol: as §2
# (§4) OCR and ECAR were measured with a Seahorse® XF24 Flux Analyzer (Seahorse Bioscience, Billerica, Mass.). For PSI experiments on C2C12 cells, basal values were assessed in non-buffered DMEM Assay Medium without glucose, glutamine or pyruvate, and supplemented with 25 mM glucose, 6 mM Glutamax®, and 1 mM sodium pyruvate. […] Succinate and ADP stocks were diluted to 10× concentrations in pre-warmed XF MAS buffer, pH 7.2. Using a Plate Prep Station (Seahorse Bioscience, Billerica, Mass.), cells were washed with 1 mL buffer and were brought to 607 μL with buffer. […] Raw basal OCR and ECAR values were normalized as a percent of the mean control value for each individual experiment. Normalized data from experiments were expressed as mean±SEM.
# [4] = tested on: Ca^2+-induced ion conductance in mitochondria; settings: 2 or 20 μM, in 100 μM Ca^2+
# Protocol: Patch-clamp recordings were made from de-energized mitochondria in intracellular solution (120 mM potassium chloride, 8 mM NaCl, 0.5 mM EGTA, 10 mM HEPES, pH adjusted to 7.3) at room temperature (22-25° C.). Pipettes (80-100M0) were filled with the same solution; recordings were made using a Heka 8 amplifier with Vm held at positive voltages up to +180 mV. Data were recorded at 20 kHz and filtered at 500-1000 Hz. […] Reagents were rapidly perfused into the recording chamber. Peak membrane conductance was measured as the peak amount of current (pA) from zero, converted to pS by assuming a linear I-V relationship. Discrete channel conductances were sorted by activity (% occurrence of a conductance level per unit time measured using pCLAMP 10 software, Molecular Devices, Sunnyvale, Calif.); levels defined as closed (no current), small (<200 pS), intermediate (>200 pS and <750 pS) and large (>750 pS). Mean open time (NPo; open time of discrete single channels times the apparent number of single channels in the patch) was used to assess drug effect
# complex V (F1FO ATPase) = complex V (F1FO ATPase) (Rattus norvegicus, UniProt P19511+Q06647); settings: concentration-dependent
# Protocol: ATP hydrolysis was also measured using an NADH-ATP-synthase kit (Mitosciences, USA; catalog #MS541), according to the manufacturer's protocol with modifications. SMVs were added 20 min. prior to addition of the reagent mix. The rate of change in […] over time as NADH was oxidized was measured as a decrease in absorbance at 340 nm.
# [5] = tested on: cultured hippocampal neurons; settings: 10 μM, 12 hr pre-treatment
# Protocol: as §3, with “Cultured hippocampal neurons were prepared and plated on 96 well plates. […] Cellular” for “Cellular”
# [6] = target: T1, intermediate- and large-conductance channel activity of PSI-mitochondria (Rattus norvegicus, UniProt P19511+Q06647); assay: Patch clamp recording of brain-derived PSI-mitochondria; type: biochemical
# T1 sequence (P19511 43-256): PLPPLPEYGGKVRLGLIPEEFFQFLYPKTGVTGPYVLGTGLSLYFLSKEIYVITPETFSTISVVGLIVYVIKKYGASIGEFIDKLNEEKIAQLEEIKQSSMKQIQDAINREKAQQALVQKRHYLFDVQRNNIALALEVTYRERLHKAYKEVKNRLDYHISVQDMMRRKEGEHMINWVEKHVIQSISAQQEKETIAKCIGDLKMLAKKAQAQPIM
# T1 sequence (Q06647 24-213): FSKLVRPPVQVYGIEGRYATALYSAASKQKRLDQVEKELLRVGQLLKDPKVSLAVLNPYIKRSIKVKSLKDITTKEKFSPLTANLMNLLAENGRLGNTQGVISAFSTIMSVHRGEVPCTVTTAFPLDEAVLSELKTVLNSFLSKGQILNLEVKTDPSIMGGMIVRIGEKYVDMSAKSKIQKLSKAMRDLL
# Protocol: Isolation of Brain-derived Mitochondria. Standard techniques were adapted for isolating brain-derived mitochondria. Mitochondria were stored in isolation buffer (IB) at −80° C. For PSI-mitochondria, male Sprague-Dawley rats (6 wo, ˜200 gm, 3-6 rats/group/condition, at least 2 different preparations/experimental paradigm) were injected with the ubiquitin proteasome inhibitor Z-Ile-Glu(OtBu)-Ala-Leu-al (PSI; Peptides International Inc, Kentucky, USA; s.c. every other day for 1 or 2 weeks; 6.0 mg/kg PSI in DMSO, or with DMSO, 200 μL/rat), and mitochondria isolated and stored as above.
# Reagents were rapidly perfused into the recording chamber.
# [7] = tested on: SH-SY5Y neuroblastoma cells; settings: 30 μM
# Protocol: Undifferentiated SH-SY5Y human neuroblastoma cells (ATCC, Manasses, Va.) were maintained in humidified 5% CO2 in 1:1 Ham's F12 nutrient mixture with Glutamax® and Minimal Essential Medium with L-glutamine (MEM-Alpha), 10% FBS, and 1% penicillin/streptomycin (Gibco® Invitrogen Corp., Carlsbad, Calif.).
# as §4
# [8] = tested on: digitonin-treated cortical neurons; assay: ATP production following ADP pulse in digitonin-treated cortical neurons; type: cell-based, rat; settings: dexpramipexole 30 μM
# C2C12 cells [9] = settings: mouse, 18 h, 30 µM
# Protocol: as §1, §2, §3
# [10] = tested on: single cultured hippocampal neurons; settings: acute application of 10 μM, after 1-5 min
# Protocol: Oxygen uptake was measured in single hippocampal neurons in culture (DIV 14-17). A […] (tip diameter) oxygen-sensing electrode oscillated 10 μm close-to and away-from the cell every 3 sec. The difference in current detected at the two positions was translated into oxygen flux.
# [11] = co-incubation of dexpramipexole 30 μM and PSI 30 nM
# human F1FO ATP synthase OSCP subunit, sequence (P48047 24-213): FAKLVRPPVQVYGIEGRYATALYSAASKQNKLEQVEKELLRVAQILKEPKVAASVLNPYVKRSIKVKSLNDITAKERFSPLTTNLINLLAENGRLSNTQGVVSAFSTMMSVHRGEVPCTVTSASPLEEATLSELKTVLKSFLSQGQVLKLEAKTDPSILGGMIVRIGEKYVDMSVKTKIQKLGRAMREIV
smiles,measurement,setting,value
"CCCN[C@@H]1CCc2nc(N)sc2C1 [dexpramipexole, (6R)-4,5,6,7-tetrahydro-N-6-propyl-2,6-benzothiazole-diamine]",competition of ^14C-dexpramipexole binding to OSCP subunit,[1],significantly reduced binding
same,in vivo survival,[2],significantly increased in vivo survival
same,ATP levels,C2C12 cells [3],neither ATP levels nor cell viability (FIG. 5b) were significantly affected
same,trends in efficacy,subjects with ALS,reduction of functional decline and decreased mortality
same,ECAR,C2C12 myoblasts; [11],no increase in ECAR
same,OCR,C2C12 myoblasts; [11],significant decrease in OCR
same,OCR,"C2C12 myoblasts; dexpramipexole 30 μM or PSI 30 nM alone, 18 hr",significant decrease in OCR; also recorded: significantly decreased
same,mitochondrial membrane currents,[4],effectively decreased
same,ATP hydrolysis (change in NADH signal),complex V (F1FO ATPase),significantly enhanced ATP hydrolysis
same,increase in ATP levels compared to vehicle-treated cultures,[5],11%
same,Hill slope of concentration-response curve,[6]; NPO inhibition in PSI-mitochondria,< 1
same,concentration for full inhibition of aberrant currents (EC100),[6]; PSI-mitochondria,> 10 µM
same,intermediate- and large-conductance channel activity,[6]; PSI-mitochondria,the inhibition was concentration-dependent and reversible
same,peak conductance,"[6]; dexpramipexole 2 μM, CSA 1 μM, PSI-mitochondria",significantly and reversibly decreased peak conductance
same,concentrations producing complete elimination of aberrant currents (EC100),[6]; level stated in discussion,10 to 30 µM
same,basal oxygen consumption rate (OCR),[7],modestly decreased
same,initial slope of ATP synthesis following an ADP pulse,[8],unchanged
same,maximal ATP levels,[8],unchanged
same,cell viability,C2C12 cells [9],neither ATP levels nor cell viability (FIG. 5b) were significantly affected
same,decrease in average oxygen flux,[10],~16%
